Assays:
Experiment in all cases: KINOMEscan
Assay type in all cases: binding
Conditions in all cases: read-out: % control activity remaining
[1] = biological target: T1, ABL1(Q252H)-nonphosphorylated (Homo sapiens, UniProt P00519, Q252H)
T1 construct: purchased Eurofins DiscoverX KINOMEscan

ALK = biological target: T2, ALK (Homo sapiens, UniProt Q9UM73)
T2 construct: purchased Eurofins DiscoverX KINOMEscan

AMPK-alpha1 = biological target: T3, AMPK-alpha1 (Homo sapiens, UniProt Q13131)
T3 construct: purchased Eurofins DiscoverX KINOMEscan
T3 sequence (Q13131 whole entry): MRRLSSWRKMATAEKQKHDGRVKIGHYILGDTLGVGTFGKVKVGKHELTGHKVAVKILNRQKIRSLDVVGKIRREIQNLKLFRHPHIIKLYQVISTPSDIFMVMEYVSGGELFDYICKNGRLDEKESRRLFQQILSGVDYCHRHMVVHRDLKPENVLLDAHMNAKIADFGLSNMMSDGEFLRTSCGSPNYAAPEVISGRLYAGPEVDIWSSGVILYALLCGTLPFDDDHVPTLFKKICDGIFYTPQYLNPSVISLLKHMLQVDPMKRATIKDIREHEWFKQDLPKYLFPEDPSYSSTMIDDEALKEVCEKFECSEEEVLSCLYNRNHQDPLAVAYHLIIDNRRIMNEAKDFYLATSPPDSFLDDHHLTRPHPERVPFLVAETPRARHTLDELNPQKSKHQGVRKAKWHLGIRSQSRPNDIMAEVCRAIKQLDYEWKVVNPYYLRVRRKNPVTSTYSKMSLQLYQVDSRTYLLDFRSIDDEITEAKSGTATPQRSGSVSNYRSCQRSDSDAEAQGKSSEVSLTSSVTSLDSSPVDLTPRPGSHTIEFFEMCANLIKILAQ

AURKB = biological target: T4, AURKB (Homo sapiens, UniProt Q96GD4)
T4 construct: purchased Eurofins DiscoverX KINOMEscan

CLK4 = biological target: T5, CLK4 (Homo sapiens, UniProt Q9HAZ1)
T5 construct: purchased Eurofins DiscoverX KINOMEscan
T5 sequence (Q9HAZ1 whole entry): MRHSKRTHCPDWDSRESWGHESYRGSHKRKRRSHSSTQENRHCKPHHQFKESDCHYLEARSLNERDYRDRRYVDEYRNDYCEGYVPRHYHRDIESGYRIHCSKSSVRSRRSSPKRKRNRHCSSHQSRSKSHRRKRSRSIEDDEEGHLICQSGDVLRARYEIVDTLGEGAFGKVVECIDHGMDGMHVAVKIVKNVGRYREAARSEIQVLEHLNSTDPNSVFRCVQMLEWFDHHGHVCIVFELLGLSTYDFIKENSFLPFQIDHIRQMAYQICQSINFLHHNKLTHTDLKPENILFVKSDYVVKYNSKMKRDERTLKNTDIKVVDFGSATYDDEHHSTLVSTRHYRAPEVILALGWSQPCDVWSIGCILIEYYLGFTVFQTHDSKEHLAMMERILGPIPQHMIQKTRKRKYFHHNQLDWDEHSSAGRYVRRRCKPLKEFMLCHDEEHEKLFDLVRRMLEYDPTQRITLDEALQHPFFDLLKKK

CSNK2A2 = biological target: T6, CSNK2A2 (Homo sapiens, UniProt P19784)
T6 construct: purchased Eurofins DiscoverX KINOMEscan
T6 sequence (P19784 whole entry): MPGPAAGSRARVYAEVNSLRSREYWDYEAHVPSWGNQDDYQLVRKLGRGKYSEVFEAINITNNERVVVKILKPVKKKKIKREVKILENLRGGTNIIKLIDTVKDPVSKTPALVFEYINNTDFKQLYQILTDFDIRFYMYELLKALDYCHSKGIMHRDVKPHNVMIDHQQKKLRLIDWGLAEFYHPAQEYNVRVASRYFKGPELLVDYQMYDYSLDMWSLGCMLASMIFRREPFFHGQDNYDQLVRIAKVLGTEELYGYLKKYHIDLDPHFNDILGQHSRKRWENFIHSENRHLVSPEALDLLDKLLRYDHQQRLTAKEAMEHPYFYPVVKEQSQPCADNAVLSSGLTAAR

EPHA6 = biological target: T7, EPHA6 (Homo sapiens, UniProt Q9UF33)
T7 construct: purchased Eurofins DiscoverX KINOMEscan
T7 sequence (Q9UF33 23-1036): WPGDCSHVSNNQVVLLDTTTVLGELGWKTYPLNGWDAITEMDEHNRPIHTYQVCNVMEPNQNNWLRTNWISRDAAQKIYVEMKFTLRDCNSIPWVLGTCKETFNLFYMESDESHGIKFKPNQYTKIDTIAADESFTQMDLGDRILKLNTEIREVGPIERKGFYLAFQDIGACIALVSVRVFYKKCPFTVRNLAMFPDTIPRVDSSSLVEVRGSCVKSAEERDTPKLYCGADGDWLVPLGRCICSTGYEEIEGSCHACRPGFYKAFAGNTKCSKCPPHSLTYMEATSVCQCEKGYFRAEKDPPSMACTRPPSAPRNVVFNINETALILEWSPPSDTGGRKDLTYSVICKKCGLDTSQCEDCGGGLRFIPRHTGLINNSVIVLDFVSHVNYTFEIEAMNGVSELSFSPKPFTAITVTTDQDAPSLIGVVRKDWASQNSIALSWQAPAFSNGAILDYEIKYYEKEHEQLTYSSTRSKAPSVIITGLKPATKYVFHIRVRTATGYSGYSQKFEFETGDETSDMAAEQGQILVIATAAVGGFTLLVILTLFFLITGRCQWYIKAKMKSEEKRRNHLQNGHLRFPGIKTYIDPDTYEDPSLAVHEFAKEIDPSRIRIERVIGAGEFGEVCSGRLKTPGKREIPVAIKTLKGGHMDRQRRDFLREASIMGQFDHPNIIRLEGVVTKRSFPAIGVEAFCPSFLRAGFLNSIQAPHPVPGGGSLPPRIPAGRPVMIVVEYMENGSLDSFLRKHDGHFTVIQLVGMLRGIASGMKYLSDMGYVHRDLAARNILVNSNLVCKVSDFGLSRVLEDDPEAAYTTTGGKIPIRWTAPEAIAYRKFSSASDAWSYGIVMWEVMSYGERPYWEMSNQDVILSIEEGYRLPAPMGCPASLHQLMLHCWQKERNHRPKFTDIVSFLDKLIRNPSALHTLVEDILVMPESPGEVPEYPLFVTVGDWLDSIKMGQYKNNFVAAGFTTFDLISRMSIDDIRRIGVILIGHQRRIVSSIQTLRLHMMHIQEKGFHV

ERK3 = biological target: T8, ERK3 (Homo sapiens, UniProt Q16659)
T8 construct: purchased Eurofins DiscoverX KINOMEscan

HCK = biological target: T9, HCK (Homo sapiens, UniProt P08631)
T9 construct: purchased Eurofins DiscoverX KINOMEscan

HIPK2 = biological target: T10, HIPK2 (Homo sapiens, UniProt Q9H2X6)
T10 construct: purchased Eurofins DiscoverX KINOMEscan
T10 sequence (Q9H2X6 whole entry): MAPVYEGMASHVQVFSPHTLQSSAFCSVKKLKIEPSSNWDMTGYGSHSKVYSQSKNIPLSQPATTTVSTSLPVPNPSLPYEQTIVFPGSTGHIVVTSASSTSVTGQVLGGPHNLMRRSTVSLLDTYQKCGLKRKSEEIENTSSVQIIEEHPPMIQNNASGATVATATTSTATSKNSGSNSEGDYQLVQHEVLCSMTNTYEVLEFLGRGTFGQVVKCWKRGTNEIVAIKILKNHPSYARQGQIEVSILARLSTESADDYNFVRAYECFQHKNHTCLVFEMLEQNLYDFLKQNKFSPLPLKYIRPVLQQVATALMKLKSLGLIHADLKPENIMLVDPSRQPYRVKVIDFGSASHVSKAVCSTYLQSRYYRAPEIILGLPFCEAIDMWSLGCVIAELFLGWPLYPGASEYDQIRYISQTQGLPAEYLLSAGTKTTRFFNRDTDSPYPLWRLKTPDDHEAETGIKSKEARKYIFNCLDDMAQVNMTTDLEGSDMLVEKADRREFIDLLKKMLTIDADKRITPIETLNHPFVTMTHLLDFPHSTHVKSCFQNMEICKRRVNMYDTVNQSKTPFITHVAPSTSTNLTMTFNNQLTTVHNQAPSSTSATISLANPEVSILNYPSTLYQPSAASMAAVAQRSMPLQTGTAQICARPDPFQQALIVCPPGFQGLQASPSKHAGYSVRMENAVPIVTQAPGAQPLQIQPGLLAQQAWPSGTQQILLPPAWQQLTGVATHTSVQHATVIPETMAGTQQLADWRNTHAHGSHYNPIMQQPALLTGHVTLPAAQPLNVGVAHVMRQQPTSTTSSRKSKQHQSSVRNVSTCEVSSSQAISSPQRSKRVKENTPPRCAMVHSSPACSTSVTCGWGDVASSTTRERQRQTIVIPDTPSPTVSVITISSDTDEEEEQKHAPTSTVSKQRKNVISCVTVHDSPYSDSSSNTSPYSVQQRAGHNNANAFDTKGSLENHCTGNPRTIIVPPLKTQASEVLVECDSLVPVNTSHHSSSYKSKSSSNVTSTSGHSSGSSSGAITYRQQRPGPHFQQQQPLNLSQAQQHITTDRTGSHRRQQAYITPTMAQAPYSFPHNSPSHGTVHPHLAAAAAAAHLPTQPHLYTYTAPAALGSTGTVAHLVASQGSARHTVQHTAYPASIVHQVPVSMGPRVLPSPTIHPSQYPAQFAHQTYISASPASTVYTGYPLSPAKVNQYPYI

ITK = biological target: T11, ITK (Homo sapiens, UniProt Q08881)
T11 construct: purchased Eurofins DiscoverX KINOMEscan
T11 sequence (Q08881 1-620): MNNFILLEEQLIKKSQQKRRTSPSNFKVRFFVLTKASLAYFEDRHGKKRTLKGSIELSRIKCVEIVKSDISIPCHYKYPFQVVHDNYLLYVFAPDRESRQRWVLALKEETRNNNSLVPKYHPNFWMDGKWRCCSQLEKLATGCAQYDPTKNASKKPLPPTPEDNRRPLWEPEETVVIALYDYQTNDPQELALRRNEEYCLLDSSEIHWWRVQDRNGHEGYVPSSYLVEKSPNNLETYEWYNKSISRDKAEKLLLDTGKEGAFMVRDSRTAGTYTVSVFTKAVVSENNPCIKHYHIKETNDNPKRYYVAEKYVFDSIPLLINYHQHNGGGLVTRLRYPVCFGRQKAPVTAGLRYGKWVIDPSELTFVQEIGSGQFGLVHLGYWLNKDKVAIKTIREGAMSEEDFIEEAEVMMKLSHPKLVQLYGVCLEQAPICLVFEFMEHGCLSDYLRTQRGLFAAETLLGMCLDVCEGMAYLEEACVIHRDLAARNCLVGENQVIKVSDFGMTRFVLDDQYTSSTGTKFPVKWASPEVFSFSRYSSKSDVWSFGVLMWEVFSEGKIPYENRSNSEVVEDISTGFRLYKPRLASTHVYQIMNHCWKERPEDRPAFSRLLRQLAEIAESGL

JNK3 = biological target: T12, JNK3 (Homo sapiens, UniProt P53779)
T12 construct: purchased Eurofins DiscoverX KINOMEscan

RAF1 = biological target: T13, RAF1 (Homo sapiens, UniProt P04049)
T13 construct: purchased Eurofins DiscoverX KINOMEscan
T13 sequence (P04049 whole entry): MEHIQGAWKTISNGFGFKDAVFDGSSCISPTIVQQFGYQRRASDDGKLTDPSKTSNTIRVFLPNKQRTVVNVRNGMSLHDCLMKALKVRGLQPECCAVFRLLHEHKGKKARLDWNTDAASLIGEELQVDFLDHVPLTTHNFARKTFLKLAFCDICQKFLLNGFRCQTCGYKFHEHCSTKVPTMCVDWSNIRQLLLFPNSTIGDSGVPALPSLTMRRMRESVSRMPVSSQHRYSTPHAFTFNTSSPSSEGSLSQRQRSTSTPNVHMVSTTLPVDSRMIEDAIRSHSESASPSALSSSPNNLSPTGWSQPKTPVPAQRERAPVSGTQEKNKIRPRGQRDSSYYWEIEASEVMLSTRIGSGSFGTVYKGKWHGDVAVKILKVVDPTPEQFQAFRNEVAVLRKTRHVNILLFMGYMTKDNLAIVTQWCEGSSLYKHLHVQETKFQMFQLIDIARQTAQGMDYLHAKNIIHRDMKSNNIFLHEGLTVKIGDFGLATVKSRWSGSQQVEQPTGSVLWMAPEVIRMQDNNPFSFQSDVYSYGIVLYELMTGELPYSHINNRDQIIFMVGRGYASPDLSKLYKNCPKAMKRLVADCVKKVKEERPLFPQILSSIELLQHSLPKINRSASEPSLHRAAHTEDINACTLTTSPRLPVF

[2] = biological target: T14, RPS6KA4(Kin.Dom.1-N-terminal) (Homo sapiens, UniProt O75676)
T14 construct: RPS6KA4(Kin.Dom.1-N-terminal); purchased Eurofins DiscoverX KINOMEscan
T14 sequence (O75676 33-301 limits assumed): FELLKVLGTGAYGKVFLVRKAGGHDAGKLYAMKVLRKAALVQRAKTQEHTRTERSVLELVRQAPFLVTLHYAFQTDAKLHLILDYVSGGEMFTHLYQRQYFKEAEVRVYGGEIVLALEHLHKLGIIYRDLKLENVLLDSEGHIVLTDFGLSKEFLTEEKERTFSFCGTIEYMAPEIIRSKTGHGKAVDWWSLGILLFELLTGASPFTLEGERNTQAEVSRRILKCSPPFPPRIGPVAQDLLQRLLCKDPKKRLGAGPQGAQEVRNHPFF

WEE2 = biological target: T15, WEE2 (Homo sapiens, UniProt P0C1S8)
T15 construct: purchased Eurofins DiscoverX KINOMEscan

T2 sequence (Q9UM73 19-1620): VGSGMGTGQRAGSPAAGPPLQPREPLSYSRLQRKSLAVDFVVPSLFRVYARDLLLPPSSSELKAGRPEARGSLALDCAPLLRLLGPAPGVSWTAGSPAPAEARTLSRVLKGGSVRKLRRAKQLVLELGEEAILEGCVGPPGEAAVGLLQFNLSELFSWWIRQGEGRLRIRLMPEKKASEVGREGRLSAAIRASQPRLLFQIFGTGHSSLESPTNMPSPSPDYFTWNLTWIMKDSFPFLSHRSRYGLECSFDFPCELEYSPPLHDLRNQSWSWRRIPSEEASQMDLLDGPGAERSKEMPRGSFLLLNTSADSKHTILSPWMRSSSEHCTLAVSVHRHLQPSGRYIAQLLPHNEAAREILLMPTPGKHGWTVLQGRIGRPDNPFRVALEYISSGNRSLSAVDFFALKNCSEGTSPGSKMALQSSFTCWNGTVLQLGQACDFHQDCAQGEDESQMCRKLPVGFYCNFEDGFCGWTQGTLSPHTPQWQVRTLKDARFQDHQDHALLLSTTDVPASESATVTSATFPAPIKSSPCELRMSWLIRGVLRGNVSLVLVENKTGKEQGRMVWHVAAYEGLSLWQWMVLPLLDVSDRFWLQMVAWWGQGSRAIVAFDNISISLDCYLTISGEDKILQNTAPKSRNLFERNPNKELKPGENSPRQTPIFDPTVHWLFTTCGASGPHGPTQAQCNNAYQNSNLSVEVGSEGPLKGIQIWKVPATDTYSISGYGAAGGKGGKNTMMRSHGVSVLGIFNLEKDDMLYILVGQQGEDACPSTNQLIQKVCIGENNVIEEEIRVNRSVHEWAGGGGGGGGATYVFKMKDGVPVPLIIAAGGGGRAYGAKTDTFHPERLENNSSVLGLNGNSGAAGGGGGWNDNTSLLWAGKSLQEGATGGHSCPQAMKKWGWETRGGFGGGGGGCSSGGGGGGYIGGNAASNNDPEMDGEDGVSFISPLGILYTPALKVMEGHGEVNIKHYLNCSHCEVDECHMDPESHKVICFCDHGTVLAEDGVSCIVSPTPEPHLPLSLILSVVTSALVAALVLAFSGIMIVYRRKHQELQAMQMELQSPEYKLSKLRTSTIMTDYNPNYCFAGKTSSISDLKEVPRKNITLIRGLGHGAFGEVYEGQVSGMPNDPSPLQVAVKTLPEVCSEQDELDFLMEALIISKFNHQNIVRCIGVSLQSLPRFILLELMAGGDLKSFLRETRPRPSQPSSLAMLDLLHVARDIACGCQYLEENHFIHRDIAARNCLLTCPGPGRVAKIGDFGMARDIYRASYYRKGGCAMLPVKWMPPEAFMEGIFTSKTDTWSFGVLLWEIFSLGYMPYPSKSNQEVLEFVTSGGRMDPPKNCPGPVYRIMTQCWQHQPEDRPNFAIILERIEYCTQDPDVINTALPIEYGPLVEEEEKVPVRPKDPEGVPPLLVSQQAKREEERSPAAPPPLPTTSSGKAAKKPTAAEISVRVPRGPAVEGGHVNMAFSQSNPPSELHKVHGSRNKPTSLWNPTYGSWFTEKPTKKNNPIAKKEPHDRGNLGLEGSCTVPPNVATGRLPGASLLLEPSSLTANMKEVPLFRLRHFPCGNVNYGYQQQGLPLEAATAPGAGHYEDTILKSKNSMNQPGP

Clc1cc(NCC2CC2)c2ncc(-c3ccc4[nH]ncc4c3)n2n1 [compound 2, 6-Chloro-N-(cyclopropylmethyl)-3-(1H-indazol-5-yl)imidazo[1,2-b]pyridazin-8-amine]
remaining binding at 1 µM [1]: 93%
remaining binding at 1 µM (ALK): 92%
remaining binding at 1 µM (AMPK-alpha1): 96%
remaining binding at 1 µM (AURKB): 90%
remaining binding at 1 µM (CLK4): 1.5%
remaining binding at 1 µM (CSNK2A2): 94%
remaining binding at 1 µM (EPHA6): 79%
remaining binding at 1 µM (ERK3): 96%
remaining binding at 1 µM (HCK): 80%
remaining binding at 1 µM (HIPK2): 62%
remaining binding at 1 µM (ITK): 92%
remaining binding at 1 µM (JNK3): 89%
remaining binding at 1 µM (RAF1): 99%
remaining binding at 1 µM [2]: 100%
remaining binding at 1 µM (WEE2): 94%

O=C(CN1CCOCC1)N[C@H]1CC[C@H](Nc2cc(Cl)nn3c(-c4ccc5[nH]ncc5c4)cnc23)CC1 [compound 26]
remaining binding at 1 µM [1]: 48%
remaining binding at 1 µM (ALK): 94%
remaining binding at 1 µM (AMPK-alpha1): 85%
remaining binding at 1 µM (AURKB): 55%
remaining binding at 1 µM (CLK4): 2.1%
remaining binding at 1 µM (CSNK2A2): 100%
remaining binding at 1 µM (EPHA6): 93%
remaining binding at 1 µM (ERK3): 68%
remaining binding at 1 µM (HCK): 93%
remaining binding at 1 µM (HIPK2): 0.7%
remaining binding at 1 µM (ITK): 84%
remaining binding at 1 µM (JNK3): 79%
remaining binding at 1 µM (RAF1): 100%
remaining binding at 1 µM [2]: 99%
remaining binding at 1 µM (WEE2): 87%

CN1CCC(CNc2cc(Cl)nn3c(-c4cc5nc(Nc6ccccc6)[nH]c5cc4F)cnc23)CC1 [compound 31, 6-Chloro-3-(6-fluoro-2-(phenylamino)-1H-benzo[d]imidazol-5-yl)-N-((1-methylpiperidin-4-yl)methyl)imidazo[1,2-b]pyridazin-8-amine]
remaining binding at 1 µM [1]: 64%
remaining binding at 1 µM (ALK): 70%
remaining binding at 1 µM (AMPK-alpha1): 94%
remaining binding at 1 µM (AURKB): 83%
remaining binding at 1 µM (CLK4): 20%
remaining binding at 1 µM (CSNK2A2): 100%
remaining binding at 1 µM (EPHA6): 82%
remaining binding at 1 µM (ERK3): 94%
remaining binding at 1 µM (HCK): 87%
remaining binding at 1 µM (HIPK2): 85%
remaining binding at 1 µM (ITK): 91%
remaining binding at 1 µM (JNK3): 99%
remaining binding at 1 µM (RAF1): 100%
remaining binding at 1 µM [2]: 91%
remaining binding at 1 µM (WEE2): 97%

From article PMC6437697 (Journal of Medicinal Chemistry, 2019)
